Values of other authors as cited in patent US20250099551A1, “THERMOSTABLE FORMULATION OF A21G HUMAN INSULIN” (priority 2018, published 2025).

conditions: 25° C.

Row | Metal binding stability constant log K for zinc | SMILES
1 | 6.91 | N[C@@H](Cc1c[nH]cn1)C(=O)O [histidine]
2 | 12.6 | O=C(O)CN(CCOCCOCCN(CC(=O)O)CC(=O)O)CC(=O)O [EGTA]
3 | 4.93 | O=C(O)CC(O)(CC(=O)O)C(=O)O [citrate]

Row | SMILES | Metal binding stability constant log K for zinc
4 | O=C(O)CN(CCN(CC(=O)O)CC(=O)O)CC(=O)O [EDTA] | 14.5
